The values below come from US20110086834A1, “ALKYNYL ALCOHOLS AS KINASE INHIBITORS” (AMGEN INC., priority 2008, published 2011).

The target in the test is T1, NIK (Homo sapiens, UniProt Q99558).
T1 construct: Both assays utilize a truncated form of NIK containing only the catalytic domain; made in house; host or cells: baculovirus expression system (insect cells implied)
The test is described as follows: homogenous time resolved fluorescence (HTRF) assay for NIK Ki measurement. The following applies: truncated NIK (catalytic domain only), autophosphorylation; 10 nM enzyme; 20, 100, 200 or 500 μM ATP; room temperature, 2 hours; read-out: Ki activity in the homogenous time resolved fluorescence (HTRF) assay for NIK. Format: biochemical. A general note: In TR-FRET formats the signal depends on donor and acceptor labels being close together.

pKi: −log10 of the molar value.

T1 sequence (Q99558 400-655 limits assumed): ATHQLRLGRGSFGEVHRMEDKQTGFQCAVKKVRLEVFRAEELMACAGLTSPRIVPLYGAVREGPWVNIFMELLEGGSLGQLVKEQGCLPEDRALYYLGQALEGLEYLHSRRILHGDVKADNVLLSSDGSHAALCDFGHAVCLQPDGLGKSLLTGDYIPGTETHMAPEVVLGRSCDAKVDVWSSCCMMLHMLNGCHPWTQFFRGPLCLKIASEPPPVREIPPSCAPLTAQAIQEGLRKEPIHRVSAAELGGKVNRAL

Take `CNc1ncc(Cl)c(-c2c[nH]c3ccc(C#CC4(O)CCCC4)cc23)n1` [Example 112, 1-(2-(3-(5-chloro-2-(methylamino)pyrimidin-4-yl)-1H-indol-5-yl)ethynyl)cyclopentanol]: the pKi was more than 6.00.
Under `Nc1ncc(Cl)c(-c2cn(CC3CCCN3)c3ccc(C#CC4(O)CCCC4)cc23)n1` (centres unmarked) [Example 113, 1-(2-(3-(2-amino-5-chloropyrimidin-4-yl)-1-(pyrrolidin-2-ylmethyl)-1H-indol-5-yl)ethynyl)cyclopentanol] stands more than 6.00; under `Nc1ncc(Cl)c(-c2cn(C3CCNC3)c3ccc(C#CC4(O)CCCC4)cc23)n1` (centres unmarked) [Example 114, 1-(2-(3-(2-amino-5-chloropyrimidin-4-yl)-1-(pyrrolidin-3-yl)-1H-indol-5-yl)ethynyl)cyclopentanol], more than 6.00.
With `Cn1cc(-c2nc(N)ncc2Cl)c2cc(C#CC(C)(O)c3nccs3)ccc21` (centres unmarked) [Example 116, 4-(3-(2-amino-5-chloropyrimidin-4-yl)-1-methyl-1H-indol-5-yl)-2-(thiazol-2-yl)but-3-yn-2-ol], the pKi is more than 6.00.
For the compound `C[C@@](O)(C#Cc1ccc2[nH]cc(-c3ccncn3)c2c1)c1nccs1` [Example 117, (2R)-4-(3-(pyrimidin-4-yl)-1H-indol-5-yl)-2-(thiazol-2-yl)but-3-yn-2-ol], the pKi is more than 6.00.
The figure for `Cn1cc(-c2ccncn2)c2cc(C#CC(C)(O)c3cscn3)ccc21` (centres unmarked) [Example 118, 4-(1-methyl-3-(pyrimidin-4-yl)-1H-indol-5-yl)-2-(thiazol-4-yl)but-3-yn-2-ol] is more than 6.00; for `CC(C)C(=O)n1cc(-c2nc(N)ncc2Cl)c2cc(C#CC3(O)CCCC3)ccc21` [Example 119, 1-(3-(2-amino-5-chloropyrimidin-4-yl)-5-(2-(1-hydroxycyclopentyl)ethynyl)-1H-indol-1-yl)-2-methylpropan-1-one] it is more than 6.00; for `CC(=O)n1cc(-c2nc(N)ncc2Cl)c2cc(C#CC3(O)CCCC3)ccc21` [Example 120, 1-(3-(2-amino-5-chloropyrimidin-4-yl)-5-(2-(1-hydroxycyclopentyl)ethynyl)-1H-indol-1-yl)ethanone] it is more than 6.00.
On to `Nc1ncc(Cl)c(-c2cn(C(=O)C3CC3)c3ccc(C#CC4(O)CCCC4)cc23)n1` [Example 121, (3-(2-amino-5-chloropyrimidin-4-yl)-5-(2-(1-hydroxycyclopentyl)ethynyl)-1H-indol-1-yl)(cyclopropyl)methanone], for which the pKi was more than 6.00.
`CC(C)(C)C(=O)n1cc(-c2nc(N)ncc2Cl)c2cc(C#CC3(O)CCCC3)ccc21` [Example 122, 1-(3-(2-amino-5-chloropyrimidin-4-yl)-5-(2-(1-hydroxycyclopentyl)ethynyl)-1H-indol-1-yl)-2,2-dimethylpropan-1-one]: the pKi was more than 6.00.
`COCCOCCn1cc(-c2nc(N)ncc2Cl)c2cc(C#CC3(O)CCCC3)ccc21` [Example 124, 1-(2-(3-(2-amino-5-chloropyrimidin-4-yl)-1-(2-(2-methoxyethoxy)ethyl)-1H-indol-5-yl)ethynyl)cyclopentanol]: the pKi is more than 6.00.
The figure for `COCCn1cc(-c2nc(N)ncc2Cl)c2cc(C#CC3(O)CCCC3)ccc21` [Example 125, 1-(2-(3-(2-amino-5-chloropyrimidin-4-yl)-1-(2-methoxyethyl)-1H-indol-5-yl)ethynyl)cyclopentanol] is more than 6.00.
For `Nc1ncc(Cl)c(-c2cn(CCN3CCOCC3)c3ccc(C#CC4(O)CCCC4)cc23)n1` [Example 126, 1-(2-(3-(2-amino-5-chloropyrimidin-4-yl)-1-(2-morpholinoethyl)-1H-indol-5-yl)ethynyl)cyclopentanol], the pKi is more than 6.00.
In the case of `CCN(CC)CCn1cc(-c2nc(N)ncc2Cl)c2cc(C#CC3(O)CCCC3)ccc21` [Example 127, 1-(2-(3-(2-amino-5-chloropyrimidin-4-yl)-1-(2-(diethylamino)ethyl)-1H-indol-5-yl)ethynyl)cyclopentanol], the pKi is more than 6.00.
For the compound `Nc1ncc(Cl)c(-c2cn(CC(=O)N3CCOCC3)c3ccc(C#CC4(O)CCCC4)cc23)n1` [Example 128, 2-(3-(2-amino-5-chloropyrimidin-4-yl)-5-(2-(1-hydroxycyclopentyl)ethynyl)-1H-indol-1-yl)-1-morpholinoethanone], the negative logarithm of the Ki (pKi) is more than 6.00.
Regarding `CCN(CC)C(=O)Cn1cc(-c2nc(N)ncc2Cl)c2cc(C#CC3(O)CCCC3)ccc21` [Example 129, 2-(3-(2-amino-5-chloropyrimidin-4-yl)-5-(2-(1-hydroxycyclopentyl)ethynyl)-1H-indol-1-yl)-N,N-diethylacetamide], the pKi was more than 6.00.
Consider `Nc1ncc(Cl)c(-c2cn(CCOCCOCCO)c3ccc(C#CC4(O)CCCC4)cc23)n1` [Example 130], for which the pKi is more than 6.00.
For `COCCOCCn1cc(-c2nc(N)ncc2Cl)c2cc(C#CC3(O)CCCCC3)ccc21` [Example 131, 1-(2-(3-(2-amino-5-chloropyrimidin-4-yl)-1-(2-(2-methoxyethoxy)ethyl)-1H-indol-5-yl)ethynyl)cyclohexanol], the pKi is more than 6.00.
Turning to `Nc1ncc(Cl)c(-c2cn(CCN3CCOCC3)c3ccc(C#CC4(O)CCCCC4)cc23)n1` [Example 132, 1-(2-(3-(2-amino-5-chloropyrimidin-4-yl)-1-(2-morpholinoethyl)-1H-indol-5-yl)ethynyl)cyclohexanol], the pKi was more than 6.00.
With `COCCOCCn1cc(-c2nc(N)ncc2F)c2cc(C#CC3(O)CCCC3)ccc21` [Example 133, 1-(2-(3-(2-amino-5-fluoropyrimidin-4-yl)-1-(2-(2-methoxyethoxy)ethyl)-1H-indol-5-yl)ethynyl)cyclopentanol], the pKi was more than 6.00.
For the compound `Nc1ncc(Cl)c(-c2cn(CC3CCOC3)c3ccc(C#CC4(O)CCCC4)cc23)n1` (centres unmarked) [Example 134, 1-(2-(3-(2-amino-5-chloropyrimidin-4-yl)-1-((tetrahydrofuran-3-yl)methyl)-1H-indol-5-yl)ethynyl)cyclopentanol], the pKi is more than 6.00.
In the case of `Nc1ncc(F)c(-c2cn(CC3CCOC3)c3ccc(C#CC4(O)CCCC4)cc23)n1` (centres unmarked) [Example 135, 1-(2-(3-(2-amino-5-fluoropyrimidin-4-yl)-1-((tetrahydrofuran-3-yl)methyl)-1H-indol-5-yl)ethynyl)cyclopentanol], the negative-log Ki (pKi) was more than 6.00.
For `Nc1ncc(Cl)c(-c2cn(C[C@@H]3CCCO3)c3ccc(C#CC4(O)CCCC4)cc23)n1` [Example 136, 1-(2-(3-(2-amino-5-chloropyrimidin-4-yl)-1-(((S)-tetrahydrofuran-2-yl)methyl)-1H-indol-5-yl)ethynyl)cyclopentanol], the pKi was more than 6.00.
As to `CN1CCC(n2cc(-c3nc(N)ncc3Cl)c3cc(C#CC4(O)CCCC4)ccc32)C1` (centres unmarked) [Example 139, 1-(2-(3-(2-amino-5-chloropyrimidin-4-yl)-1-(1-methylpyrrolidin-3-yl)-1H-indol-5-yl)ethynyl)cyclopentanol], the pKi was more than 6.00.
Regarding `COc1ccc(C#CC(C)(O)c2nccs2)cc1Nc1nc(N)ncc1Cl` (centres unmarked) [Example 143, 4-(3-((2-amino-5-chloro-4-pyrimidinyl)amino)-4-(methyloxy)phenyl)-2-(1,3-thiazol-2-yl)-3-butyn-2-ol], the pKi is more than 6.00.
Consider `COc1ccc(C#CC(C)(O)c2cc(C)no2)cc1Nc1nc(N)ncc1Cl` (centres unmarked) [Example 144, 4-(3-((2-amino-5-chloro-4-pyrimidinyl)amino)-4-(methyloxy)phenyl)-2-(3-methyl-5-isoxazolyl)-3-butyn-2-ol], for which the pKi is more than 6.00.
`COc1ccc(C#CC2(O)CCCC2)cc1Nc1nc(N)ncc1Cl` [Example 145, 1-((3-((2-amino-5-chloro-4-pyrimidinyl)amino)-4-(methyloxy)-phenyl)ethynyl)-cyclopentanol]: the pKi was more than 6.00.
As to `COc1ccc(C#C[C@@](C)(O)c2nccs2)cc1Nc1nc(N)ncc1Cl` [Example 146, (R)-4-(3-(2-Amino-5-chloropyrimidin-4-ylamino)-4-methoxyphenyl)-2-(thiazol-2-yl)but-3-yn-2-ol], the pKi was more than 6.00.
On to `CC(O)(C#Cc1cccc(Nc2nc(N)ncc2Cl)n1)c1nccs1` (centres unmarked) [Example 147, 4-(6-(2-Amino-5-chloropyrimidin-4-ylamino)pyridin-2-yl)-2-(thiazol-2-yl)but-3-yn-2-ol], for which the pKi was 4.52 to 6.00.
Under `Cc1cc(C(C)(O)C#Cc2ccc(OC3CCOCC3)c(Nc3nc(N)ncc3Cl)c2)no1` (centres unmarked) [Example 148, 4-(3-(2-Amino-5-chloropyrimidin-4-ylamino)-4-(tetrahydro-2H-pyran-4-yloxy)phenyl)-2-(5-methylisoxazol-3-yl)but-3-yn-2-ol] stands more than 6.00.
With `Nc1ncc(Cl)c(Nc2cc(C#CC3(O)CCCC3)ccc2OC2CCOCC2)n1` [Example 149, 1-(2-(3-(2-Amino-5-chloropyrimidin-4-ylamino)-4-(tetrahydro-2H-pyran-4-yloxy)phenyl)ethynyl)cyclopentanol], the pKi was more than 6.00.
With `COc1ccc(C#CC(C)(O)c2cc(C)on2)cc1Nc1nc(N)ncc1Cl` (centres unmarked) [Example 150, 4-(3-(2-Amino-5-chloropyrimidin-4-ylamino)-4-methoxyphenyl)-2-(5-methylisoxazol-3-yl)but-3-yn-2-ol], the pKi is more than 6.00.
The figure for `COCCN(C)c1ccc(C#CC(C)(O)c2cc(C)on2)cc1Nc1nc(N)ncc1Cl` (centres unmarked) [Example 151, 4-(3-(2-Amino-5-chloropyrimidin-4-ylamino)-4-((2-methoxyethyl)(methyl)amino)phenyl)-2-(5-methylisoxazol-3-yl)but-3-yn-2-ol] is more than 6.00.
For `CC(O)(C#Cc1ccc(OC2CCOCC2)c(Nc2nc(N)ncc2Cl)c1)c1nccs1` (centres unmarked) [Example 152, 4-(3-(2-Amino-5-chloropyrimidin-4-ylamino)-4-(tetrahydro-2H-pyran-4-yloxy)phenyl)-2-(thiazol-2-yl)but-3-yn-2-ol], the pKi was more than 6.00.
As to `COCCN(C)c1ccc(C#C[C@](C)(O)c2nccs2)cc1Nc1nc(N)ncc1Cl` [Example 153, (S)-4-(3-(2-Amino-5-chloropyrimidin-4-ylamino)-4-((2-methoxyethyl)(methyl)-amino)phenyl)-2-(thiazol-2-yl)but-3-yn-2-ol], the negative logarithm of the Ki (pKi) was 4.52 to 6.00.

One may read the pKi as the negative decadic logarithm of the Ki, by convention in mol/L.
